Results reported in patent publication US8337835B2, “Use of an endogenous ligand for peroxisome proliferator activated receptor alpha to treat liver disorders” (priority 2009, dated 2012).

Biological target: T1, PPARα (Mus musculus, UniProt P23204)
T1 construct: expressed in transfected cells; host or cells: liver of chow- or ZFD-fed WT mice on a PPARα null background, infected with AdFLAG-PPARα adenovirus
T1 sequence (P23204 1-468): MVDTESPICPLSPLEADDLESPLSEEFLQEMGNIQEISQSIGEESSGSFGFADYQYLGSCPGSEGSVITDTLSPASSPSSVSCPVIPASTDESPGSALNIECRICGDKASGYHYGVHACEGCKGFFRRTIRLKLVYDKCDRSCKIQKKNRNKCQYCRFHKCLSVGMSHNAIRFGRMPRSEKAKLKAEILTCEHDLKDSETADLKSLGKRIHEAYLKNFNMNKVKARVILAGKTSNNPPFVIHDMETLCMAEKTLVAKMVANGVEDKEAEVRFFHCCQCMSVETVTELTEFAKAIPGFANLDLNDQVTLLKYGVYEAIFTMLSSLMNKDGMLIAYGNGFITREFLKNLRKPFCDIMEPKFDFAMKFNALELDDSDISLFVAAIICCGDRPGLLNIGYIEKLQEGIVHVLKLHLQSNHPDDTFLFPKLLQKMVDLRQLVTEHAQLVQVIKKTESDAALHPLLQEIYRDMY
Experiment: In vivo competitive inhibition: displacement of 16:0/18:1-GPC (m/z 766) from FLAG-tagged PPARα, ESI/MS
Conditions: 50 μg/g intraperitoneal; chow and zero fat diet fed WT mice on PPARα null background with AdFLAG-PPARα; 0-60 min
Procedure: Freshly harvested livers (˜100 mg) were gently homogenized in ice-cold non-detergent hypotonic buffer (10 mM HEPES, pH 7.9, 1.5 mM MgCl2, 10 mM KCl, 100 mM DTT, protease and phosphatase inhibitor cocktail). After an additional 10 min incubation in the hypotonic buffer, the homogenate was centrifuged at 8000×g at 4° C. for 20 min. The pellet was homogenized in ice-cold extraction buffer (10 mM HEPES, pH 7.9, 1.5 mM MgCl2, 0.21 M NaCl, 0.2 mM EDTA, 25% (v/v) glycerol, 100 mM DTT, protease and phosphatase inhibitor cocktail), placed on a rotating shaker at 4° C. for 1 h, then centrifuged at 18,000×g for 10 min. […]
The in vivo displacement of the endogenous PPARα ligand 16:0/18:1-GPC by the PPARα agonist Wy14,643 was assessed by electrospray ionization mass spectrometry (ESI/MS) Analysis. […] Wy14,643 in chow fed WT mice on a PPARα null background injected with AdFLAG-PPARα adenovirus are shown in FIGS. 4A-D. Similarly, representative ESI/MS scans of GPC species at different time intervals following an intraperitoneal injection of 50 μg/g Wy14,643 in ZFD fed mice are shown in FIGS. 4E-H. Insets in FIGS. 4A-H depict the ion at m/z 766 (16:0/18:1-GPC) that is time-dependently competed away with Wy14,643 while quantification of the relative abundance of the peak abundance of m/z 766 ion in response to Wy14,643 is shown in FIG. 4I. […]

- displacement of 16:0/18:1-GPC (m/z 766) from PPARα: displaced from PPARα within minutes
Compound: Cc1cccc(Nc2cc(Cl)nc(SCC(=O)O)n2)c1C [Wy14,643, 4-Chloro-6-(2,3-xylidino)-2-pyrimidinylthioacetic acid]
